Measured values taken from patent publication US4034102A, “4-Substituted-1,3-dithiolan-2-ylidene malonates and pharmaceutical compositions containing the same” (Nihon Nohyaku Co. Ltd., priority 1975, dated 1977).

How the values were obtained:
[1] = test system: CCl4-induced liver damage; experiment: Protection against CCl4-induced Hepatotoxicity; type: in vivo, mice (four-week-old male, dd strain); settings: 6 h before CCl4 (0.05 ml/kg oral), 24 h after CCl4, average of 5 to 6 mice; for Liver damage index: 250 mg/kg oral in olive oil, score 0 normal, 2 slightly recognized, 4 clearly observable damage, 6 heavy damage, CCl4 alone 5.2, control 0; for p-GPT (plasma glutamic-pyruvic transaminase activity): 250 mg/kg oral, values over 1,000 regarded as 1,000, CCl4 alone >1000, control 35
Source text: Carbon tetrachloride (CCl4) administration induces centrilobular necrosis of the liver associated with loss of diphosphopyridine nucleotide, hepatic glycogen, coenzyme A and increase in neutral fat. Release of several enzymes from the hepatocytes, and increase of enzyme activities in the plasma are recognized as the result of the damage of the liver. A suitable means for evaluating the degree of damage induced by CCl4 or the degree of protection afforded by drugs is to study the plasma glutamic-pyruvic transaminase (p-GPT) activity.
Methods: The test compounds were dissolved or suspended in olive oil and administered orally at the dose of 250 mg/kg to the mice (Four-week-old male mice-dd strain). After 6 hours, CCl4 was administered orally (0.05 ml/kg as olive oil solution). Animals were killed 24 hours after CCl4 administration, and the liver was grossly observed. The plasma was obtained by centrifugation. Activities of p-GPT were determined by the method of Reitman and Frankels and expressed in Karmen units. Score for liver damage index was as follows:
Each figure indicates average of 5 to 6 mice. Values of p-GPT over 1,000 Karmen unit regarded as 1,000 for calculation of average for convenience.

in vivo = settings: mouse, oral, male mice, read-out: acute oral toxicity LD50
Protocol: For example, the LD50 value of the compound 12 is more than 3,000 mg/kg. Further, these compounds have no detrimental effects on test animals administered therewith, so far as the doses thereof are within an ordinary administration range.

SMILES	Liver damage index [1]	p-GPT (plasma glutamic-pyruvic transaminase activity) [1] [Karmen units]	LD50 (in vivo) [mg/kg]
CC(C)OC(=O)C(C(=O)OC(C)C)=C1SCC(OC(=O)/C=C\C(=O)O)S1 (stereo not shown) [Compound 15]	0.4	62	
CCOC(=O)C(C(=O)OCC)=C1SCC(OC(=O)CCCC(=O)O)S1 (stereo not shown) [Compound 3]	1.2	108	
CCOC(=O)C(C(=O)OCC)=C1SCC(OC(=O)CCC(=O)O)S1 (stereo not shown) [Compound 2, Succinic acid semi-ester of diethyl 4-hydroxy-1,3-dithiolan-2-ylidene malonate]	0.6	43	
CCN(CC)CC(=O)OC1CSC(=C(C(=O)OC(C)C)C(=O)OC(C)C)S1 (stereo not shown) [Compound 19, diisopropyl 4-diethylaminoacetoxy-1,3-dithiolan-2-ylidene malonate]	1.2	288	
CCCN(CCC)CC(=O)OC1CSC(=C(C(=O)OCC)C(=O)OCC)S1 (stereo not shown) [Compound 6]	1.6	250	
CC(C)OC(=O)C(C(=O)OC(C)C)=C1SCC(OC(=O)C2CC=CCC2C(=O)O)S1 (stereo not shown) [Compound 18]	2.6	565	
CCCCOC(=O)C(C(=O)OCCCC)=C1SCC(OC(=O)CN2CCOCC2)S1 (stereo not shown) [Compound 22]	0.8	134	
CC(C)OC(=O)C(C(=O)OC(C)C)=C1SCC(OC(=O)c2ccccc2)S1 (stereo not shown) [Compound 10]	1.7	520	
NC(=O)CCCCC1CCSS1 (stereo not shown) [Thioctic acid amide, reference compound]	4.8	763	
CC(C)OC(=O)C(C(=O)OC(C)C)=C1SCC(OC(=O)CCC(=O)O)S1 (stereo not shown) [Compound 12]	0.2	33	> 3000
CCOC(=O)C(C(=O)OCC)=C1SCC(OC(=O)C2=C(C(=O)O)CCCC2)S1 (stereo not shown) [Compound 7]	2.2	382	
CC(C)OC(=O)C(C(=O)OC(C)C)=C1SCC(OC(=O)CCl)S1 (stereo not shown) [Compound 9, diisopropyl 4-chloroacetoxy-1,3-dithiolan-2-ylidene malonate]	0.6	65	
CC(C)OC(=O)C(C(=O)OC(C)C)=C1SCC(OC(=O)c2ccccc2C(=O)O)S1 (stereo not shown) [Compound 16, phthalic acid semi-ester of diisopropyl 4-hydroxy-1,3-dithiolan-2-ylidene malonate]	3.2	482	
CC(C)OC(=O)C(C(=O)OC(C)C)=C1SCC(OC(=O)CN2CCOCC2)S1 (stereo not shown) [Compound 21]	1.4	380	
CCCOC(=O)C(C(=O)OCCC)=C1SCC(OC(=O)CCC(=O)O)S1 (stereo not shown) [Compound 8, Succinic acid semi-ester of di-n-propyl 4-hydroxy-1,3-dithiolan-2-ylidene malonate]	0.6	77	
CC(C)OC(=O)C(C(=O)OC(C)C)=C1SCC(OC(=O)CCC(=O)O)S1 (stereo not shown) [Compound 13]	0.6	44	
CCOC(=O)C(C(=O)OCC)=C1SCC(OC(=O)CN2CCOCC2)S1 (stereo not shown) [Compound 23]	0.8	122	
CCOC(=O)C(C(=O)OCC)=C1SCC(OC(=O)CCl)S1 (stereo not shown) [Compound 1]	1.0	102	
CC(C)OC(=O)C(C(=O)OC(C)C)=C1SCC(OC(=O)C2=C(C(=O)O)CCCC2)S1 (stereo not shown) [Compound 17]	1.8	286	
COc1ccc(-c2cc(=S)ss2)cc1 [Anethol trithion, reference compound]	1.6	58	
CCOC(=O)C(C(=O)OCC)=C1SCC(OC(=O)CCC(=O)O)S1 (stereo not shown) [Compound 4]	0.2	45	
CCOC(=O)C(C(=O)OCC)=C1SCC(OC(=O)CN(CC)CC)S1 (stereo not shown) [Compound 5, Diethyl 4-diethylaminoacetoxy-1,3-dithiolan-2-ylidene malonate]	1.6	232	
CC(C)OC(=O)C(C(=O)OC(C)C)=C1SCC(OC(=O)CCC(=O)O)S1 (stereo not shown) [Compound 11, succinic acid semi-ester of diisopropyl 4-hydroxy-1,3-dithiolan-2-ylidene malonate]	0.2	54	
CC(C)OC(=O)C(C(=O)OC(C)C)=C1SCC(OC(=O)CCCC(=O)O)S1 (stereo not shown) [Compound 14]	0.6	102	
